Source: ChEMBL document CHEMBL1201862, “PubChem BioAssay data set” (2004)
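Values below derive from 48-hour exposures of cells grown in 96-well plates, with endpoints linearly interpolated between the two concentrations bracketing the appropriate inhibition level. GI50 marks 50% less growth.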 The source made the active and inactive calls. Rule as the data show it: active = GI50 up to about 1.1 µM and inactive = higher.

Tests used:
Assay in all cases: DTP human tumour cell line panel, 48 h
[1] = test system: A498
[2] = test system: EKVX
[3] = test system: IGROV-1
[4] = test system: KM12
[5] = test system: LOX IMVI
[6] = test system: LXFL 529
[7] = test system: NCI-H226
[8] = test system: OVCAR-5
[9] = test system: RXF 393
[10] = test system: SF-295
[11] = test system: SK-MEL-28
[12] = test system: SR
[13] = test system: SW-620
[14] = test system: U-251
[15] = test system: UACC-257
[16] = test system: UO-31
[17] = test system: Hs-578T
[18] = test system: MDA-MB-435
[19] = test system: NCI/ADR-RES
[20] = test system: SNB-75

| Structure (SMILES) | GI50 [1] | GI50 [2] | GI50 [3] | GI50 [4] | GI50 [5] | GI50 [6] | GI50 [7] | GI50 [8] | GI50 [9] | GI50 [10] | GI50 [11] | GI50 [12] | GI50 [13] | GI50 [14] | GI50 [15] | GI50 [16] | GI50 [17] | GI50 [18] | GI50 [19] | GI50 [20] |
| --- | --- | --- | --- | --- | --- | --- | --- | --- | --- | --- | --- | --- | --- | --- | --- | --- | --- | --- | --- | --- |
| Cc1ccc(N2C[N+](c3ccccc3)=NC(c3ccccc3)=N2)cc1 | 71.9 µM (inactive) | 32.4 µM (inactive) | 48.4 µM (inactive) | 67.6 µM (inactive) | 32.4 µM (inactive) | 24.8 µM (inactive) | 60.8 µM (inactive) | > 100 µM (inactive) | 80.2 µM (inactive) | 61.7 µM (inactive) | 55.7 µM (inactive) | 36.4 µM (inactive) | 51.8 µM (inactive) | 44.6 µM (inactive) | 53.2 µM (inactive) | 35.9 µM (inactive) | – | – | – | – |
| N/C(=N\N=C\c1c[nH]c2ccccc12)Nc1ccccc1 | 0.256 µM (active) | 2.92 µM (inactive) | 0.865 µM (active) | 0.153 µM (active) | 0.36 µM (active) | 0.504 µM (active) | 1.74 µM (inactive) | 3.13 µM (inactive) | 0.156 µM (active) | 0.134 µM (active) | 0.789 µM (active) | 0.955 µM (active) | 0.122 µM (active) | 0.315 µM (active) | 0.304 µM (active) | 0.721 µM (active) | 0.14 µM (active) | 0.02 µM (active) | 0.148 µM (active) | 0.378 µM (active) |
| Cc1c(Cl)cccc1NC(=O)C(=O)C1C(=O)NC(=O)NC1=O | > 100 µM (inactive) | > 100 µM (inactive) | > 100 µM (inactive) | > 100 µM (inactive) | > 100 µM (inactive) | > 100 µM (inactive) | > 100 µM (inactive) | > 100 µM (inactive) | > 100 µM (inactive) | > 100 µM (inactive) | > 100 µM (inactive) | > 100 µM (inactive) | > 100 µM (inactive) | > 100 µM (inactive) | > 100 µM (inactive) | > 100 µM (inactive) | – | – | – | > 100 µM (inactive) |
| COC(=O)CCC(=O)N1CC1C (stereo not given) | > 100 µM (inactive) | > 100 µM (inactive) | > 100 µM (inactive) | > 100 µM (inactive) | > 100 µM (inactive) | > 100 µM (inactive) | > 100 µM (inactive) | > 100 µM (inactive) | > 100 µM (inactive) | > 100 µM (inactive) | > 100 µM (inactive) | > 100 µM (inactive) | > 100 µM (inactive) | > 100 µM (inactive) | > 100 µM (inactive) | > 100 µM (inactive) | – | – | – | > 100 µM (inactive) |
| CCOc1ccc(NC(=O)C(=O)NO)cc1 | > 100 µM (inactive) | > 100 µM (inactive) | > 100 µM (inactive) | > 100 µM (inactive) | > 100 µM (inactive) | > 100 µM (inactive) | > 100 µM (inactive) | > 100 µM (inactive) | > 100 µM (inactive) | > 100 µM (inactive) | > 100 µM (inactive) | 55.3 µM (inactive) | > 100 µM (inactive) | > 100 µM (inactive) | > 100 µM (inactive) | > 100 µM (inactive) | – | – | – | > 100 µM (inactive) |
| CSc1ccc(NC(=O)C2c3[nH]c4ccccc4c3C3CCC(C(C)(C)C)CC3C2C(=O)O)cc1 (stereo not given) | 17.9 µM (inactive) | 24.3 µM (inactive) | 17 µM (inactive) | – | – | 15.9 µM (inactive) | 15.3 µM (inactive) | – | 20 µM (inactive) | 17.6 µM (inactive) | 22.9 µM (inactive) | 11.5 µM (inactive) | 17.7 µM (inactive) | 15 µM (inactive) | 34.1 µM (inactive) | 17.5 µM (inactive) | – | – | – | 17.2 µM (inactive) |
| COc1ccc(/C=C2\CCC(C)(CN(C)C)C2=O)cc1Br (stereo not given) | 22.4 µM (inactive) | 10.2 µM (inactive) | 16.2 µM (inactive) | 14 µM (inactive) | 18.2 µM (inactive) | 17.9 µM (inactive) | 18.9 µM (inactive) | 37.7 µM (inactive) | 17.9 µM (inactive) | 26.3 µM (inactive) | 22.9 µM (inactive) | 19.1 µM (inactive) | 19.8 µM (inactive) | 21.8 µM (inactive) | 19.5 µM (inactive) | 18.1 µM (inactive) | 30.5 µM (inactive) | 24.5 µM (inactive) | 22.3 µM (inactive) | 25.6 µM (inactive) |
| CN1CCC(CN2c3ccccc3Sc3ccccc32)CC1 | 15.6 µM (inactive) | 14.4 µM (inactive) | 16.7 µM (inactive) | 16 µM (inactive) | 13.5 µM (inactive) | 14.4 µM (inactive) | 15.4 µM (inactive) | 19.4 µM (inactive) | 3.07 µM (inactive) | 15.8 µM (inactive) | 11 µM (inactive) | 14.1 µM (inactive) | 15.3 µM (inactive) | 15.7 µM (inactive) | 14.6 µM (inactive) | 10.1 µM (inactive) | – | – | – | – |
| CC1(C)CC(=O)C(C(=O)C(=O)NC2=C(Cl)C(=O)c3ccccc3C2=O)C(=O)C1 | > 100 µM (inactive) | > 100 µM (inactive) | > 100 µM (inactive) | 42.3 µM (inactive) | 80.9 µM (inactive) | 49.1 µM (inactive) | 39.4 µM (inactive) | > 100 µM (inactive) | 70.8 µM (inactive) | > 100 µM (inactive) | > 100 µM (inactive) | 30.8 µM (inactive) | > 100 µM (inactive) | 82.2 µM (inactive) | > 100 µM (inactive) | 57.4 µM (inactive) | – | – | – | 71.1 µM (inactive) |
| CCSc1c2ccccc2c(-c2nc(F)nc(F)n2)n1CCc1ccccc1 | 86.5 µM (inactive) | > 100 µM (inactive) | – | > 100 µM (inactive) | > 100 µM (inactive) | > 100 µM (inactive) | > 100 µM (inactive) | > 100 µM (inactive) | > 100 µM (inactive) | > 100 µM (inactive) | > 100 µM (inactive) | 51.3 µM (inactive) | > 100 µM (inactive) | > 100 µM (inactive) | – | > 100 µM (inactive) | – | – | – | – |
| O=c1[nH]c(=O)n(C2OC(COP(=O)(O)OP(=O)(O)O)C(O)C2O)cc1F (stereo not given) | 6.25 µM (inactive) | 2.44 µM (inactive) | 11.8 µM (inactive) | 2.28 µM (inactive) | 0.251 µM (active) | 0.555 µM (active) | 3.13 µM (inactive) | 7 µM (inactive) | 2.57 µM (inactive) | 0.822 µM (active) | 2.13 µM (inactive) | 1.34 µM (inactive) | 0.171 µM (active) | 0.391 µM (active) | 6.11 µM (inactive) | 6.08 µM (inactive) | – | – | – | 8.65 µM (inactive) |
